What was measured:
Type in all cases: biochemical
[1] = target: thrombin (Homo sapiens, UniProt P00734); assay: Direct inhibition of thrombin, chromogenic substrate (Spectrozyme TH) hydrolysis assay; conditions: pH 7.4, 37 °C; read-out: IC50 against thrombin
Description: (§1) The rationale behind targeting an allosteric site on plasmin was to achieve inhibition specificity over the closely related serine proteases. In contrast to active sites, allosteric sites are not as highly conserved and therefore present a powerful opportunity for discovering a selective modulator of enzyme function. […] Using appropriate small peptide-based chromogenic substrates, the fractional residual thrombin and factor Xa activities were measured under the physiological condition of pH 7.4 and 37 °C.
(§2) Briefly, to each well of a 96-well microplate containing 185 μL of 20–50 mM Tris-HCl buffer, pH 7.4, containing 100–150 mM NaCl, 0.1% PEG8000 and 0.02% Tween80 at either 25 °C (thrombin) or 37 °C (factor Xa) was added 5 μL of 10–20 mM inhibitor (or vehicle) and 5 μL of the enzyme. The final concentrations of the enzymes were 6 nM (thrombin) and 1.09 nM (factor Xa). After 10 min incubation, 5 μL 1.0 mM Spectrozyme TH or 2.5 mM Spectrozyme FXa, was rapidly added and the residual enzyme activity was measured from the initial rate of increase in A405. Relative residual enzyme activity (Y, activity in the presence of inhibitor to that in its absence) as a function of the concentration of inhibitor was measured.

[2] = target: T1, human Lys-plasmin (Homo sapiens, UniProt P00747); assay: Direct inhibition of human Lys-plasmin, chromogenic substrate (Spectrozyme PL) hydrolysis assay
T1 construct: purchased Haematologic Technologies (Essex Junction, VT, USA)
T1 sequence (P00747 581-810 limits assumed): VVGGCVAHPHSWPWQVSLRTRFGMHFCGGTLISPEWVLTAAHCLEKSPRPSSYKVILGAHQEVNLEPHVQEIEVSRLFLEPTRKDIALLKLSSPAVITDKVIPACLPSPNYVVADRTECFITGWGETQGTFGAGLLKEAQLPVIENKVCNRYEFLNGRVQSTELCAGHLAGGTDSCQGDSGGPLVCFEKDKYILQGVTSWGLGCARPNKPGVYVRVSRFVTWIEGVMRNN
T1 sequence (P00747 97-580 partner limits assumed): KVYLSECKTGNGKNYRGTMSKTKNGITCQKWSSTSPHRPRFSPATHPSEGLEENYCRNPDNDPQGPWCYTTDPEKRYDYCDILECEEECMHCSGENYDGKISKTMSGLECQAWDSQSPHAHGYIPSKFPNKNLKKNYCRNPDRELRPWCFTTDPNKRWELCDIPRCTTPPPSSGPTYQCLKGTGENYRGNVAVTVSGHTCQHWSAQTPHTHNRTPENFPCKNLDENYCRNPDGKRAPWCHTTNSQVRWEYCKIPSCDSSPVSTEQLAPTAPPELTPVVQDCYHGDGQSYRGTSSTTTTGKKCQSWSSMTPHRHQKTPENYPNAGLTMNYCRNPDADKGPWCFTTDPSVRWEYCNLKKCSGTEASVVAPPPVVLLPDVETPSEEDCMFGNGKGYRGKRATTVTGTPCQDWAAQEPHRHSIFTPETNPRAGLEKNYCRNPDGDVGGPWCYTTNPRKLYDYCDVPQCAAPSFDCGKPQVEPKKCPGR
Description: Important to emphasize here that the potency of NSGM-based inhibitors was evaluated by measuring their IC50's (X-axis), whereas the efficacy was assessed by measuring the overall change in residual plasmin activity (%) (ΔY = YM − Y0) (Y-axis).
Direct inhibition of human Lys-plasmin was measured using a chromogenic substrate hydrolysis assay on a microplate reader (FlexStation III, Molecular Devices, Sunnyvale, CA, USA), as reported earlier. Briefly, to each well of a 96-well microplate containing 85 µL of 50 mM Tris-HCl buffer, pH 7.4, containing 150 mM NaCl, 0.1% PEG8000, and 0.02% Tween80 at 37 °C was added 5 µL potential NSGM-based inhibitor (20–100 mM aqueous solution) (or vehicle alone) and 5 µL enzyme. The final concentration of the enzyme was 20 nM. After 5 min incubation, 5 µL of 1 mM Spectrozyme PL was rapidly added and the residual enzyme activity was measured from the initial rate of increase in A405. Relative residual enzyme activity (Y) as a function of the concentration of sulfated molecule was fitted using logistic equation 1 to obtain the potency (IC50), efficacy (ΔY) and Hill slope (HS) of inhibition. In this equation, YM and Y0 are the maximal and minimal values of Y: (1) Y = Y0+YM−Y0/1+10^(log[Inhibitor]0 − logIC50) ×HS […]
In this equation, Y is the ratio of residual plasmin activity in the presence of inhibitor to that in its absence (fractional residual activity). YM and Y0 are the maximum and minimum possible values of the fractional residual proteinase activity. The difference between these two values is used to evaluate the inhibitor’s efficacy to reduce the residual enzyme activity under the assay condition.
Direct inhibition of human plasmin by sulfated small molecules. Direct inhibition of plasmin was measured using a chromogenic substrate hydrolysis assay on a microplate reader (FlexStation III, Molecular Devices), as reported earlier. Briefly, to each well of a 96-well microplate containing […]
Tween80 at 37 °C was added 5 µL potential inhibitor (or vehicle alone) and 5 µL enzyme. The final concentration of the enzyme was 20 nM. After 5 min incubation, 5 µL of 1 mM Spectrozyme PL was rapidly added and the residual enzyme activity was measured from the initial rate of increase in A405.
Relative residual enzyme activity (Y, activity in the presence of inhibitor to that in its absence) as a function of the concentration of SPGG derivative was fitted using logistic Equation (1) to obtain the potency (IC50), efficacy (ΔY) and Hill slope (HS) of inhibition. In this equation, YM and Y0 are the maximal and minimal values of Y.

[3] = target: T2, human plasmin (Homo sapiens, UniProt P00747); assay: Michaelis-Menten kinetics of Spectrozyme PL hydrolysis by human plasmin in presence of inhibitor
T2 construct: purchased Haematologic Technologies (Essex Junction, VT, USA)
T2 sequence (P00747 581-810 limits assumed): as the sequence (P00747 581-810 limits assumed) above
T2 sequence (P00747 97-580 partner limits assumed): as the sequence (P00747 97-580 partner limits assumed) above
Description: The initial rate of Spectrozyme PL hydrolysis by human plasmin (20 nM) was monitored from the linear increase in absorbance at 405 nm corresponding to less than 10% consumption of the substrate. […] The data were fitted by Michaelis-Menten Equation (2) to determine KM,app and VMAX: (2) V= VMAX [S]/KM+ [S] […]
Michaelis-Menten kinetics of Spectrozyme PL hydrolysis by plasmin in the presence of […]
The initial rate of Spectrozyme PL hydrolysis by human plasmin (20 nM) was monitored from the linear increase in absorbance at 405 nm corresponding to less than 10% consumption of the substrate. The initial rate was measured as a function of various concentrations of the substrate (0–400 μM) […]
50 mM Tris-HCl buffer, pH 7.4, 150 mM NaCl at 37 °C. The data were fitted by Michaelis-Menten Equation (2) to determine KM,app and VMAX. […]

[4] = target: factor Xa (Homo sapiens, UniProt P00742); assay: Direct inhibition of factor Xa, chromogenic substrate (Spectrozyme FXa) hydrolysis assay
Chain of factor Xa (P00742 235-488 limits assumed): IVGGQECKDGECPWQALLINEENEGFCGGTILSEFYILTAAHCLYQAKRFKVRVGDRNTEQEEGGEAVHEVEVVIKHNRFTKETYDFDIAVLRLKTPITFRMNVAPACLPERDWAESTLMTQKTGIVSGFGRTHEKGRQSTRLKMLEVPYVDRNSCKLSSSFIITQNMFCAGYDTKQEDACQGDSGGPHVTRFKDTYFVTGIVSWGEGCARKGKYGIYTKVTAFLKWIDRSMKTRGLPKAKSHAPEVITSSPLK
Chain of factor Xa (P00742 41-179 partner limits assumed): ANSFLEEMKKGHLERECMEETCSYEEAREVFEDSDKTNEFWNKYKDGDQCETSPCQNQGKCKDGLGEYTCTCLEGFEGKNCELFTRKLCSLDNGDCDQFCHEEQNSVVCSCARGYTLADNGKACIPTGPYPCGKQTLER
Description: as §1, §2

IC50 [1]: > 500 µM
IC50 ([2]; human plasmin 20 nM, 50 mM Tris-HCl pH 7.4, 150 mM NaCl, 37 °C, Spectrozyme PL): 76 ± 12 µM
HS (Hill slope) ([2]; logistic fit, pH 7.4, 37 °C): 1.0 ± 0.2
Emax ([2]; pH 7.4, logistic fit, pH 7.4, 37 °C, read-out: ΔY% (efficacy, YM − Y0)): 72%
mechanism of plasmin inhibition ([3]; Michaelis-Menten kinetics, pH 7.4, 37 °C): uncompetitive inhibition
decrease in KM relative to absence of inhibitor ([3]; inhibitor 0 to 150 μM): approximately 3.5 fold
VMAX of Spectrozyme PL hydrolysis ([3]; inhibitor 15 μM): 52.9 ± 2.9 mAU/min
VMAX of Spectrozyme PL hydrolysis ([3]; inhibitor 30 μM): 37.0 ± 1.5 mAU/min
VMAX of Spectrozyme PL hydrolysis ([3]; inhibitor 75 μM): 34.8 ± 1.5 mAU/min
VMAX of Spectrozyme PL hydrolysis ([3]; inhibitor 150 μM): 26.4 ± 0.8 mAU/min
selectivity index for plasmin over factor Xa [4]: about 5 fold
IC50 ([4]; pH 7.4, 37 °C, read-out: IC50 against factor Xa): > 250 µM
Structure (SMILES): O=c1c(OS(=O)(=O)O)c(-c2ccc(OS(=O)(=O)O)c(OS(=O)(=O)O)c2)oc2cc(OS(=O)(=O)O)cc(OCCCCOc3cc(OS(=O)(=O)O)cc4oc(-c5ccc(OS(=O)(=O)O)c(OS(=O)(=O)O)c5)c(OS(=O)(=O)O)c(=O)c34)c12 [compound 52, 5,5'-(Butane-1,4-diylbis(oxy))bis(2-(3,4-O,O-disulfonato-phenyl)-3,7-O,O-disulfonato-4H-chromen-4-one)]

— PMC6272155, “Plasmin Regulation through Allosteric, Sulfated, Small Molecules” (Molecules, 2015)
